Experimental data as given in patent publication EP1229025A1, “NOVEL QUINAZOLINE DERIVATIVES” (Japan Energy Corporation, priority 1999, dated 2001).

Experiments:
Format in all cases: cell-based
[1] = system: TNF-α production; assay: TNF-α production inhibiting test using human PBMC (LPS stimulus, ELISA); settings: LPS 10 ng/ml, 16 hours, ELISA of culture supernatants
Method: Example 145: TNF-α production inhibiting test using human PBMC (peripheral blood mononuclear cells)
Preparation of human PBMC
The blood of a healthy person was taken with a vacuum blood-collecting tube (Nipro neotube) and diluted up to two-fold with physiological saline (Otsuka Pharmaceuticals). To the diluted blood was added 6% dextran T-500 (prepared after dissolution in physiological saline (Otsuka Pharmaceuticals) and sterilization with an autoclave) so as to make a final concentration of 1%. The solution was subjected to tumble mixing and allowed to stand at room temperature for 30 minutes to precipitate the erythrocytes. The supernatant was collected and subjected to centrifugation at 20 °C and at 1,500 rpm for 10 minutes. The cells were suspended in 3 ml of RPMI1640 culture medium (Asahi Technogllas) and overlaid on the solution surface of 3 ml Lymphoprep (NYCOMED). Further, with 1.5 ml of RPMI1640 culture medium being added to the tube which had contained the cell suspension liquid, the cells attached to the tube, which had remained uncollected, were suspended for collection and overlaid on the Lymphoprep previously mentioned. This operation was repeated again. After centrifugation at 20 °C and at 2,000 rpm for 30 minutes, there was collected a fraction of peripheral blood mononuclear cells present in the boundary surface between the Lymphoprep and the RPMI1640 culture medium. The cells were washed twice with 10 ml RPMI1640 culture medium to remove the Lymphoprep and then suspended in a RPMI1640 culture medium added with 10% bovine fetal serum (IRVINE SCIENTIFIC), 100 U/ml penicillin and 100 µg/ml streptomycin (hereinafter referred to as cRPMI1640 culture medium). The number of the cells was measured by Tuerk dying, and the cells, after adjustment to 3 × 10^6 cells/ml, were planted in 100 µl/well on a 96-well plate (FALCON). The cells were cultured at 37 °C under 5%CO2 atmosphere for about 5 hours.
Induction of TNF-α production by LPS stimulus
LPS (E.coli 0111:B4, DIFCO), which had been prepared to 10 mg/ml with water and kept at -20, was diluted to 100 µg/ml with cRPMI1640 culture medium and subjected to sterile filtration. The 100 µg/ml LPS was diluted with cRPMI1640 culture medium to prepare 20 ng/ml LPS. A compound to be tested which was dissolved in DMSO at 1,000-fold concentration was diluted to 500-fold with cRPMI1640 culture medium containing 20 ng/ml LPS and added in 100 µl/well to the cells which had been planted on the previously mentioned 96-well plate (final concentration of LPS: 10 ng/ml). For use as the control group, the solutions were made by diluting DMSO of the same volume as in the test compounds with cRPMI1640 culture medium containing 20 ng/ml LPS, and they were added to the cells. These cells were cultured at 37 °C under 5%CO2 atmosphere for 16 hours.
Determination of TNF-α activity (ELISA method)
To the 96-well plate the mouse anti-human TNF-α antibody (prepared to 2 µg/ml with Coating buffer*^1) was added so as to make 100 µl/well and allowed to stand at 4 °C overnight. After 5-times washing with Wash buffer*^2 (300µl/well), the Blocking buffer*^3 was added to the solutions, which were allowed to stand 37 °C for 2 hours. The culture supernatants were diluted up to 5-fold in the plate (supernatant 20 µl being added to 80 µl of cRPMI1640 culture medium). Simultaneously, for using for a calibration curve, a series of dilution of recombinant human TNF-α was prepared arid allowed to stand 37 °C for 1 hour. After 5-times washing with Wash buffer (300 µl /well), biotinylated rabbit anti-human TNF-α antibody (prepared to 0.25 µg/ml with Antibody diluent*^4) was added so as to make 100 µl /well and allowed to stand at 37 °C for 1 hour. After 5-times washing with Wash buffer (300 µl /well), Streptavidin-Horseradish peroxidase(prepared to 1:4000 with Antibody diluent) was added to make 100 µl /well and allowed to stand at 37 °C for 15 minutes. […]

[2] = system: IL-4 production; assay: IL-4 production inhibiting test in OVA-stimulated spleen cells of immunised mouse (ELISA); settings: 72 h, spleen cells of OVA-immunised BALB/c-mouse, OVA 0.5 mg/ml, 3 days
Method: (§1) Example 146: IL-4 and IL-5 production inhibiting test
(§2) A 6-weeks-old BALB/c-mouse (Nippon Charles River) was bred preparatively for 1 week and given at the day 0 and day 14 intraperitoneal injection of 100 µl PBS to give immunity which PBS contained 0.1 mg/ml of Ovalbumin(OVA) and 40 mg/ml of aluminum hydroxide. At the day 21 the spleen was taken out from the mouse. The spleen was dissected with a pincette in cooled PBS, passed through a mesh and subjected to centrifugation at 4 °C at 1,500 rpm for 5 minutes. The cells was added with 5 ml of 0.2% NaCI to destroy erythrocytes, and then was made isotonic by adding 5 ml of 1.6% of NaCl. After centrifugation at 4 °C, 1,500 rpm for 5 minutes, the cells were washed twice with 10 ml ofRPMI1640 culture medium. The obtained spleen cells were suspended in cRPMI1640 medium, and the number of the cells was measured by Tuerk dying. After being adjusted to 1 × 10^7 cells/ml, the cells were planted in 100 µl/well on a 96-well plate (FALCON). The cells were cultured at 37 °C under 5% CO2 atmosphere for about 4 hours. OVA was prepared to 10 mg/ml with cRPMI1640 culture medium and subjected to sterile filtration. The 10 mg/ml OVA was diluted with cRPMI1640 culture medium to give 1 mg/ml OVA. A compound to be tested which was dissolved in DMSO in at 1,000-fold concentration was diluted up to 500-fold with cRPMI1640 culture medium containing 1 mg/ml OVA and added in 100 µl/well to the cells which had been planted on the previously mentioned 96-well plate (final concentration of OVA: 0.5 mg/ml). As the controls, the solutions were made by diluting DMSO of the same volume as with the test compounds with cRPMI1640 culture medium containing 1 mg/ml OVA, and they were added to the cells. These cells were cultured at 37 °C under 5%CO2 atmosphere for 3 days. IL-4 and IL-5 in the culture supernatants after 3 days were quantitatively determined by ELISA method. IL-4 and IL-5 were quantitatively determined using IL-4 Development Kit (Genzyme Techne) and mouse IL-5 MiniKit (ENDOGEN), respectively. The production inhibiting rates of each tested compound against IL-4 are shown in Table 22, those against IL-5 in Table 23.

[3] = system: IL-5 production; assay: IL-5 production inhibiting test in OVA-stimulated spleen cells of immunised mouse (ELISA); settings: 72 h, spleen cells of OVA-immunised BALB/c-mouse, OVA 0.5 mg/ml, 3 days
Method: as §1, §2

## O=[N+]([O-])c1cc2c(NCc3ccc4c(c3)OCO4)ncnc2cc1N1CCNCC1 [Example 31, 4-[3,4-(methylenedioxy)benzylamino]-6-nitro-7-(piperazin-1-yl)quinazoline]
[1]
  IC50: 80 nM
[2]
  IC50: 10 nM
[3]
  IC50: 200 nM

## O=[N+]([O-])c1cc2c(NCc3cccs3)ncnc2cc1N1CCNCC1 [Example 48, 6-nitro-7-(piperazin-1-yl)-4-[(2-thienyl)methylamino]quinazoline]
[2]
  IC50: 100 nM
[3]
  IC50: 900 nM

## O=[N+]([O-])c1cc2c(NCc3ccco3)ncnc2cc1N1CCNCC1 [Example 51, 4-[(2-furyl)methylamino]-6-nitro-7-(piperazin-1-yl)quinazoline]
[2]
  IC50: 100 nM

## O=[N+]([O-])c1cc2c(NCc3ccccc3F)ncnc2cc1N1CCNCC1 [Example 61, 4-(2-fluorobenzylamino)-6-nitro-7-(piperazin-1-yl)quinazoline]
[1]
  IC50: 300 nM
[2]
  IC50: 200 nM
[3]
  IC50: 2000 nM

## CC(CNc1ncnc2cc(N3CCNCC3)c([N+](=O)[O-])cc12)c1ccccc1 (stereo not drawn) [Example 82, 4-(2-methyl-2-phenylethylamino)-6-nitro-7-(piperazin-1-yl)quinazoline]
[1]
  IC50: 7200 nM

## O=[N+]([O-])c1cc2c(NC3CCN(Cc4ccccc4)CC3)ncnc2cc1N1CCNCC1 [Example 86, 4-[(1-benzyl-4-piperidyl)amino]-6-nitro-7-(piperazin-1-yl)quinazoline]
[1]
  IC50: 6400 nM

## O=[N+]([O-])c1cc2c(N3CCN(c4ccccc4)CC3)ncnc2cc1N1CCNCC1 [Example 98, 6-nitro-4-(4-phenylpiperazinyl)-7-piperazinylquinazoline]
[1]
  IC50: 2100 nM

## COc1ccc(N2CCN(c3ncnc4cc(N5CCNCC5)c([N+](=O)[O-])cc34)CC2)cc1 [Example 99, 4-[(4-methoxyphenyl)piperazinyl]-6-nitro-7-piperazinylquinazoline]
[1]
  IC50: 900 nM

## O=[N+]([O-])c1cc2c(N3CCN(c4ccc(Cl)cc4)CC3)ncnc2cc1N1CCNCC1 [Example 101, 4-[(4-chlorophenyl)piperazinyl]-6-nitro-7-piperazinylquinazoline]
[1]
  IC50: 1400 nM

## Fc1ccc(CNc2ncnc3cc(N4CCNCC4)c(F)cc23)cc1 [Example 113, 6-fluoro-4-(4-fluorobenzylamino)-7-(piperazin-1-yl)quinazoline]
[1]
  IC50: 900 nM

## Fc1cc2c(NCc3ccc4c(c3)OCO4)ncnc2cc1N1CCNCC1 [Example 114, 6-fluoro-4-[3,4-(methylenedioxy)benzylamino]-7-(piperazin-1-yl)quinazoline]
[1]
  IC50: 600 nM

## Fc1cc2c(Nc3ccc4c(c3)OCO4)ncnc2cc1N1CCNCC1 [Example 116, 6-fluoro-4-[(3,4-methylenedioxy)anilino]-7-(piperazin-1-yl)quinazoline]
[1]
  IC50: 3000 nM

## Fc1ccc(CCNc2ncnc3cc(N4CCNCC4)c(F)cc23)cc1 [Example 117, 6-fluoro-4-[2-[(4-fluoro)phenyl]ethylamino]-7-(piperazin-1-yl)quinazoline]
[1]
  IC50: 4700 nM

## Fc1cc2c(NCCc3ccc4c(c3)OCO4)ncnc2cc1N1CCNCC1 [Example 118, 6-fluoro-4-[2-[(3,4-methylenedioxy)phenyl]ethylamino]-7-(piperazin-1-yl)quinazoline]
[1]
  IC50: 2200 nM

## Fc1ccc(CCCNc2ncnc3cc(N4CCNCC4)c(F)cc23)cc1 [Example 119, 6-fluoro-4-[3-[(4-fluoro)phenyl]propylamino]-7-(piperazin-1-yl)quinazoline]
[1]
  IC50: 2300 nM

## Fc1cc2c(NCCCc3ccc4c(c3)OCO4)ncnc2cc1N1CCNCC1 [Example 120, 6-fluoro-4-[3-[(3,4-methylenedioxy)phenyl]propylamino]-7-(piperazin-1-yl)quinazoline]
[1]
  IC50: 2000 nM

## Fc1cc2c(NCc3ccc4c(c3)OCCO4)ncnc2cc1N1CCNCC1 [Example 121, 4-[(3,4-ethylenedioxy)benzylamino]-6-fluoro-7-(piperazin-1-yl)quinazoline]
[1]
  IC50: 2500 nM

## CN(Cc1ccc2c(c1)OCO2)c1ncnc2cc(N3CCNCC3)c(F)cc12 [Example 122, 6-fluoro-4-[[N-methyl-N'-(3,4-methylenedioxybenzyl)]amino]-7-(piperazin-1-yl)quinazoline]
[1]
  IC50: 600 nM

## O=[N+]([O-])c1cc2c(Nc3ccc(F)cc3)ncnc2cc1N1CCNCC1 [Example 123, 4-[(4-fluoro)anilino]-6-nitro-7-(piperazin-1-yl)quinazoline]
[1]
  IC50: 600 nM

## O=[N+]([O-])c1cc2c(Nc3ccc4c(c3)OCO4)ncnc2cc1N1CCNCC1 [Example 124, 4-[(3,4-methylenedioxy)anilino]-6-nitro-7-(piperazin-1-yl)quinazoline]
[1]
  IC50: 1700 nM

## O=[N+]([O-])c1cc2c(NCCc3ccc4c(c3)OCO4)ncnc2cc1N1CCNCC1 [Example 125]
[1]
  IC50: 3300 nM

## O=[N+]([O-])c1cc2c(NCCCc3ccc(F)cc3)ncnc2cc1N1CCNCC1 [Example 126, 4-[3-[(4-fluoro)phenyl]propylamino]-6-nitro-7-(piperazin-1-yl)quinazoline]
[1]
  IC50: 700 nM

## O=[N+]([O-])c1cc2c(NCCCc3ccc4c(c3)OCO4)ncnc2cc1N1CCNCC1 [Example 127, 4-[3-[(3,4-methylenedioxy)phenyl]propylamino]-6-nitro-7-(piperazin-1-yl)quinazoline]
[1]
  IC50: 500 nM

## O=[N+]([O-])c1cc2c(NCc3ccc(F)c(F)c3)ncnc2cc1N1CCNCC1 [Example 128, 4-[(3,4-difluoro)benzylamino]-6-nitro-7-(piperazin-1-yl)quinazoline]
[1]
  IC50: 700 nM

## O=[N+]([O-])c1cc2c(NCc3ccc4c(c3)OCCO4)ncnc2cc1N1CCNCC1 [Example 130, 4-[(3,4-ethylenedioxy)benzylamino]-6-nitro-7-(piperazin-1-yl)quinazoline]
[1]
  IC50: 2500 nM
